Results: US20090216010A1, “CRYSTALLINE CARBAPENEM COMPOUND AND PRODUCED METHOD THEREOF” (priority 2008, published 2009)
Where two headings read alike, the source gives them in different places.

Tests used:
[1] = solid form, storage over a long period of time; prior-art forms (EP 126587A, EP 256377, US 4,888,344); cited from earlier work
[2] = stability during storage of the solid form; format: physicochemical; conditions: new crystalline form B, compared with non-crystalline form, no data given

| stability during storage [2] | SMILES | stability during storage [1] | stability during storage ([2]; listed as crystalline carbapenem compound of the present invention) |
| --- | --- | --- | --- |
| – | C[C@@H](O)[C@H]1C(=O)N2C(C(=O)O)=C(S[C@@H]3CN[C@H](C(=O)N(C)C)C3)[C@H](C)[C@H]12 [Compound A in such crystalline form A, (4R,5S,6S)-3-[[(3S,5S)-5-[(dimethylamino)carbonyl]-3-pyrrolidinyl]thio]-6-[(1R)-1-hydroxyethyl]-4-methyl-7-oxo-1-azabicyclo[3.2.0]hept-2-ene-2-carboxylic acid] | much more stable than in a non-crystalline form | – |
| – | C[C@@H](O)[C@H]1C(=O)N2C(C(=O)O)=C(S[C@@H]3CN[C@H](C(=O)N(C)C)C3)[C@H](C)[C@H]12 [Compound A in such non-crystalline form, (4R,5S,6S)-3-[[(3S,5S)-5-[(dimethylamino)carbonyl]-3-pyrrolidinyl]thio]-6-[(1R)-1-hydroxyethyl]-4-methyl-7-oxo-1-azabicyclo[3.2.0]hept-2-ene-2-carboxylic acid] | not sufficiently stable | – |
| stable for storage | C[C@@H](O)[C@H]1C(=O)N2C(C(=O)O)=C(S[C@@H]3CN[C@H](C(=O)N(C)C)C3)[C@H](C)[C@H]12 [Compound A in a new crystalline form B, (4R,5S,6S)-3-[[(3S,5S)-5-[(dimethylamino)carbonyl]-3-pyrrolidinyl]thio]-6-[(1R)-1-hydroxyethyl]-4-methyl-7-oxo-1-azabicyclo[3.2.0]hept-2-ene-2-carboxylic acid] | – | much more stable than carbapenem compound in a non-crystalline form |
